{"source": "patent US10130674B2", "about": "“Modified peptide that reduces pain in peripheral neuropathy” (Creative Bio-Peptides, priority 2010, dated 2018)", "key": {"[1]": {"test_system": "CCR5-specific virus (HIVBaL)", "assay": "In vitro CCR5 receptor viral infectivity assay (GHOST R5 reporter cells)", "type": "cell-based, HIV", "conditions": "GFP reporter", "procedure": "This virus uses CCR5 receptor binding to infect its host cell.\nIn Vitro CCR5 Receptor Viral Infectivity Assay\nA CCR5-specific virus (HIVBaL) was added 1 hr later. CCR5 receptor viral infectivity was tested on CCR5-containing cells with a Green Fluorescent Protein (GFP) reporter that responds to viral infection.\nThe experiment, which was repeated 5 times in various cell systems, was performed in triplicate and bars correspond to standard error of the mean. Data were analyzed by a nonlinear fit using GraphPad Prism 5."}, "CCR5": {"target": "CCR5 (Homo sapiens, UniProt P51681)", "sequence (P51681 whole entry)": "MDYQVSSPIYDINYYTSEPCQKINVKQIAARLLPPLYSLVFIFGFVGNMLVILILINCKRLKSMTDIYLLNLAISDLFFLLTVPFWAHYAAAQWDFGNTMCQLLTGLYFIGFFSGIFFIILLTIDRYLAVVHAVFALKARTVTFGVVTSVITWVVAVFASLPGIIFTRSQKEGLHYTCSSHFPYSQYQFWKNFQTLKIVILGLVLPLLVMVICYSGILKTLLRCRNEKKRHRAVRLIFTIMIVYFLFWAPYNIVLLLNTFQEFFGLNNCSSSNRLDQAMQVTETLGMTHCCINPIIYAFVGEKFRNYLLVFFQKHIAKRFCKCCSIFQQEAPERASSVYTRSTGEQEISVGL", "conditions": "cited from earlier work"}, "[2]": {"assay": "Nerve damage neuropathic pain, DAPTA pilot study", "type": "in vivo, rat"}, "[3]": {"conditions": "data not shown"}, "[4]": {"conditions": "data not shown", "remark": "listed apart in the source"}}}
{"molecule": "D-Ala-Peptide T-amide [DAPTA]", "values": [{"measurement": "block of infection by CCR5 using virus (HIVBaL)", "setting": "[1]", "result": "block CCR5 receptors"}, {"measurement": "affinity for R5", "setting": "CCR5", "result": "femtomolar range"}, {"measurement": "neuropathic pain development", "setting": "[2]; pilot study, 0.01 mg/kg, not shown", "result": "inhibited neuropathic pain development"}, {"measurement": "pain in the paw ipsilateral to nerve damage", "setting": "[2]; rats", "result": "attenuated pain"}]}
{"molecule": "C[C@H](O)[C@@H](N)C(=O)N[C@@H](C(=O)N[C@H](CC(N)=O)C(=O)N[C@H](Cc1ccc(O)cc1)C(=O)N[C@@H](C(=O)O)[C@H](C)O)[C@H](C)O", "note": "[All D TTNYT]", "values": [{"measurement": "paw withdrawal threshold in naïve animals", "setting": "[3]", "result": "did not alter"}, {"measurement": "paw withdrawal latency in naïve animals", "setting": "[4]", "result": "did not alter"}]}
